Results from PMC12192077, “Leveraging Neural ODEs for Population Pharmacokinetics of Dalbavancin in Sparse Clinical Data” (Entropy, 2025).
Read-outs that look alike come from different tables or passages of the source.

Assays:
[1] = in vivo; cited from earlier work
clinical = conditions: in vivo
Description: The dataset used in this study was collected from a cohort of 218 patients undergoing Dalbavancin treatment and who underwent therapeutic drug monitoring (TDM) of Dalbavancin at the IRCCS, Azienda Ospedaliero Universitaria di Bologna between April 2021 and December 2024. Dalbavancin is a long-acting antibiotic used for the treatment of skin and soft tissue infections and as a second-line agent in patients with staphylococcal infections, such as bone and joint infections, vascular prosthetic joint infections and endocarditis. At our center, Dalbavancin plasma exposure is optimized by means of TDM, which is the medical practice of measuring drug concentration in plasma in order to guide drug dosing for attaining a pre-defined target of efficacy. Dalbavancin is a semisynthetic lipoglycopeptide derived from the teicoplanin-like antibiotic A-40926, which is an agent naturally produced by the actinomycete Nonomuria spp. […] The long lipophilic side chain in the Dalbavancin molecule serves a dual purpose by both extending the half-life, as well as anchoring the compound to the membrane, which enhances its antimicrobial activity.
The data acquisition process involved recording patient covariates, drug administration details and serial blood sampling for pharmacokinetic analysis. Dalbavancin doses ranged from 350mg to 1500mg , with a total of 703 administrations recorded. Blood samples were obtained at various time points following drug administration, resulting in 669 concentration measurements. Standardized laboratory procedures were followed for quantifying Dalbavancin levels in plasma, ensuring accuracy and consistency across all samples.
To ensure robust model evaluation, we employed a cross-validation approach. Given the dataset size and the need for a balance between the training and validation data, we opted for a 6-fold cross-validation framework. This choice provides a good trade-off between statistical reliability and computational efficiency, allowing each model to be trained and validated on multiple subsets of the data while maintaining a sufficient amount of training data per fold.
Since the compartment models are systems of differential equations, the replacement of these equations with an NN is direct:(2a) dCc/dt=−CcCl/V1−CcQ/V1+CpQ/V2dCp/dt=CcQ/V1−CpQ/V2 (2b) dh(t)/dt=fnn(h(t),t;θ) The differential equation systems (2a) represent a simple two-compartment model with the four parameters that need to be fitted: V1 and V2 are the volumes of the central and peripheral compartments, Cl the clearance, Q the intercompartmental clearance and Cc and Cp the concentrations of the two compartments.
In addition to the main FNN, the model includes an additional parameter, the distribution volume ( VNODE ), which is learned through gradient descent with the whole FNN. […]

clearance (clinical; human, Cl (clearance), SD): 0.9 mL/min | Cl (clearance) (clinical; human, SD): 0.0367 ± 0.0006 L/h | VNODE (distribution volume) (clinical): 5.7 ± 0.1 L | VNODE,cov (distribution volume) (clinical; SD): 5.2 ± 0.8 L
SMILES: CN[C@H]1C(=O)N[C@@H]2Cc3ccc(cc3)Oc3cc4cc(c3O[C@@H]3O[C@H](C(=O)O)[C@@H](O)[C@H](O)[C@H]3NC(=O)CCCCCCCCC(C)C)Oc3ccc(cc3Cl)[C@@H](O)[C@@H]3NC(=O)[C@H](NC(=O)[C@@H]4NC(=O)[C@@H](NC2=O)c2cc(cc(O)c2Cl)Oc2cc1ccc2O)c1ccc(O)c(c1)-c1c(O[C@H]2O[C@H](CO)[C@@H](O)[C@H](O)[C@@H]2O)cc(O)cc1[C@@H](C(=O)NCCCN(C)C)NC3=O [Dalbavancin]
Cl (clearance) [1]: 0.031 ± 0.004 L/h | Q (intercompartmental clearance) [1]: 0.038 ± 0.013 L/h | V1 (volume of central compartment) [1]: 5.9 ± 0.3 L | V2 (volume of peripheral compartment) [1]: 9.6 ± 1.4 L
